From PubChem BioAssay AID1117319 (Southern Research Institute, 2015)
Inconclusive results are not listed.

The molecules below were run against Virion infectivity factor (Human immunodeficiency virus type 1 group M subtype B (isolate BH10)) + Virion infectivity factor (Human immunodeficiency virus type 1 group M subtype B (isolate BRU/LAI)) + Virion infectivity factor (Human immunodeficiency virus type 1 group M subtype B (isolate PCV12)) + Virion infectivity factor (Human immunodeficiency virus type 1 group M subtype B (isolate HXB2)) + DNA dC->dU-editing enzyme APOBEC-3G (Homo sapiens) (UniProt P69720+P69721+P69722+P69723+Q9HC16) (assay: HIV-1 Vif–A3G interaction blockers – biochemical, TR-FRET, GST-Vif 1-94, biotin-A3G peptide, dose response retest, primary screen (AID 1117319;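 note: Vif residues 1-94 fused to GST binding biotinylated APOBEC3G peptide 110-148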)). Details: TR-FRET GST-Vif / biotin-A3G peptide binding.

How did the IC50 turn out when CN(C)c1ccc(N=C/C=C2/N(C)c3ccccc3C2(C)C)cc1 was run?
Its IC50 is 2.19 µM.

For Cc1onc(-c2ccccc2Cl)c1C(=O)NCc1ccco1, which IC50 is on record?
The IC50 was 1.08 µM.

For C/C(=N\O)C(=O)NCc1ccccn1, which IC50 is on record?
Its IC50 is 77.5 µM.

How did the IC50 turn out when O=C1CC(c2ccco2)CC(O)=C1C=Nc1cc(Cl)ccc1Cl (stereo unspecified) was run?
Its IC50 is 4.07 µM.

For COc1ccc(OCCOC(=O)c2cccc(-n3cnnn3)c2)cc1, which IC50 is on record?
Its IC50 is 93.6 µM.

With O=C(O)CCCCC1SCC2NC(=O)NC21 (stereo unspecified) as the molecule, how does the IC50 read?
The IC50 was 0.27 µM.

How did the IC50 turn out when O=c1cc(O)n(-c2ccc(F)cc2)c(=S)[nH]1 was run?
The IC50 was 51.5 µM.

Which IC50 does the source give for COc1cc(-c2nnc(SCc3cc(=O)oc4cc(O)c(O)cc34)o2)cc(OC)c1OC here?
The IC50 was 8.36 µM.

For COc1ccc(/C=N\NC(=O)c2cc(O)c(O)c(O)c2)cc1CN1CCN(c2ccc(F)cc2)CC1, which IC50 is on record?
Its IC50 is less than 2.47 µM.

For CN1CCC(N(C)C(=O)COc2ccccc2-c2ccccc2)CC1, which IC50 is on record?
Its IC50 is 10.8 µM.

Which IC50 does the source give for CCOC(=O)C1CCN(C(c2cccs2)c2sc3nc(C)nn3c2O)CC1 (stereo unspecified) here?
Its IC50 is 55.7 µM.

CCN1CCN(c2cc(N3CCN(C(=O)c4ccco4)CC3)c3c4c(onc24)-c2ccccc2C3=O)CC1 was tested. Which IC50 did it give?
Its IC50 is 3.06 µM.

Oc1ccc(N=Cc2ccc(-c3cccs3)s2)cc1 was tested. Which IC50 did it give?
Its IC50 is 0.92 µM.

For CN(C)c1ccc(O)c2c1CC1CC3[C@@H](N(C)C)C(=O)C(C(N)=O)=C(O)[C@]3(O)C(=O)C1=C2O (stereo partly specified), which IC50 is on record?
Its IC50 is 1.07 µM.

Oc1ccc(C[C@H]2NCCc3cc(O)c(O)cc32)cc1O was tested. Which IC50 did it give?
The IC50 was 9.77 µM.

CC[n+]1ccc(C)c2cc(S(=O)C(F)(F)F)ccc21 (stereo unspecified) was tested. Which IC50 did it give?
The IC50 was 8.8 µM.

How did the IC50 turn out when CCNC(=O)COC(=O)c1cc(-c2ccco2)nc2ccccc12 was run?
Its IC50 is 3.93 µM.

With Cc1cc2ccccc2n1CCNC(=O)C1CCCCC1 as the molecule, how does the IC50 read?
Its IC50 is 37.2 µM.

How did the IC50 turn out when Cc1[nH]c2ccccc2c1C(=O)Cn1c(=O)oc2ccccc21 was run?
Its IC50 is 96.2 µM.

Which IC50 does the source give for NNc1ccc([N+](=O)[O-])c2[nH][nH]c(=O)c12 here?
Its IC50 is 1.93 µM.

With O=C(/C(=N/N=C/c1ccc(O)c(O)c1O)c1ccccc1)c1ccccc1 as the molecule, how does the IC50 read?
The IC50 was 3.15 µM.

With COc1ccc(/C=C(\NC(=O)c2ccc(OCC(C)C)cc2)C(=O)OCc2ccco2)cc1 as the molecule, how does the IC50 read?
The IC50 was 32.7 µM.

O=C1/C(=C/C=C/c2ccco2)SC(=S)N1NS(=O)(=O)c1ccccc1 was tested. Which IC50 did it give?
Its IC50 is 2.9 µM.

For N#Cc1c(N)sc(=S)c2c1CCCCC2, which IC50 is on record?
Its IC50 is 4.22 µM.

Which IC50 does the source give for COC(=O)/C(=N/Nc1ccccc1C)N1CCCc2ccccc21 here?
Its IC50 is 1.9 µM.

With C=C(c1ccc(OCCO)cc1)c1ccc(OCCO)cc1 as the molecule, how does the IC50 read?
Its IC50 is 56.6 µM.

How did the IC50 turn out when CCOc1cccc(CNc2ccc(O)cc2)c1OCc1ccccc1Cl was run?
Its IC50 is 6.61 µM.

Clc1ccc2nc3ccccn3c2c1 was tested. Which IC50 did it give?
The IC50 was 98.3 µM.

Which IC50 does the source give for CCN(CC)c1ccc(C(=C2C=CC(=[N+](CC)CC)C=C2)c2ccccc2)cc1 here?
The IC50 was 11.8 µM.

For COc1cc(C2C(C(=O)c3ccco3)=C(O)C(=O)N2c2cc(C)on2)cc(Br)c1O (stereo unspecified), which IC50 is on record?
Its IC50 is 26.5 µM.

CCOc1ccccc1C(=O)NCC(=O)OCC(=O)NCCc1ccc(S(N)(=O)=O)cc1 was tested. Which IC50 did it give?
The IC50 was 75.8 µM.

With CNc1ccc(Br)cc(C(=O)/C=C/c2ccc(Cl)cc2Cl)c1=O as the molecule, how does the IC50 read?
The IC50 was 9.23 µM.

Which IC50 does the source give for O=C(NCc1ccco1)c1cc(-c2cccc(Cl)c2)on1 here?
The IC50 was 36.9 µM.

How did the IC50 turn out when CCCC(=Nc1ccc(N)cc1)C1=C(O)C(C(=O)OC)C(C)(C)CC1=O (stereo unspecified) was run?
Its IC50 is 2.76 µM.

For Cc1ccc(NC(=O)CCCCCC2NC(=O)NC2C)cc1 (stereo unspecified), which IC50 is on record?
The IC50 was 0.71 µM.

Which IC50 does the source give for O=C(O)C(Cc1ccccc1)N1C(=O)/C(=C/C=C/c2ccco2)SC1=S (stereo unspecified) here?
The IC50 was 2.11 µM.

Which IC50 does the source give for O=[N+]([O-])c1c(NCCO)cc(Sc2nc3ccccc3s2)c2nonc12 here?
The IC50 was 34.9 µM.

With O=C(CCCN1C(=O)/C(=C\c2ccco2)SC1=S)Nc1ccc2ccccc2c1 as the molecule, how does the IC50 read?
Its IC50 is 7.25 µM.

For Nc1ccc(N2CCN(CCCCN3C(=O)C4CCCN4C3=O)CC2)cc1 (stereo unspecified), which IC50 is on record?
The IC50 was 1.34 µM.

With CCOc1cc(N2CCOCC2)c(OCC)cc1NS(=O)(=O)c1ccc(Cl)s1 as the molecule, how does the IC50 read?
The IC50 was 3.22 µM.

With COc1cc(NCCCCCCN)c2ncccc2c1OC as the molecule, how does the IC50 read?
The IC50 was 3.55 µM.

CCOC(=O)C1CCN(Cc2cnc(Oc3ccc(OC)cc3)s2)CC1 was tested. Which IC50 did it give?
The IC50 was 80.9 µM.

O=C(O)c1ccc(-n2nc(C(F)(F)F)c3c2-c2ccoc2CC3)cc1 was tested. Which IC50 did it give?
The IC50 was 58.6 µM.

How did the IC50 turn out when O=C(C1CCCN1S(=O)(=O)c1cccc2cccnc12)N1CCN(c2ccccc2)CC1 (stereo unspecified) was run?
The IC50 was 40.2 µM.

How did the IC50 turn out when C=CCn1c(C)c(C(C)=O)c(N2CCN(c3ccccc3)CC2)nc1=S was run?
Its IC50 is 8.23 µM.

For CCOC(=O)C1=C(COC(=O)/C=C/c2ccco2)NC(=O)NC1C (stereo unspecified), which IC50 is on record?
Its IC50 is 10.9 µM.

For Cc1ccc(C)c(NC(=O)CN(C)C(=O)c2cccc(-n3cccc3)c2)c1, which IC50 is on record?
Its IC50 is 15.4 µM.

For O=C(O)c1c2c(nc3ccc(Cl)cc13)CCC2, which IC50 is on record?
The IC50 was 23.4 µM.

For Cc1c(C)n(C(=O)CSc2nc3ccccc3[nH]2)c2ccccc12, which IC50 is on record?
Its IC50 is 39.7 µM.

With COc1ccc(CN2C(=O)NC(=O)/C(=C/c3ccc([N+](=O)[O-])s3)C2=O)cc1 as the molecule, how does the IC50 read?
Its IC50 is 14.5 µM.

How did the IC50 turn out when Cc1ccc(C2C(C#N)=C(N)Oc3c2oc(CO)cc3=O)o1 (stereo unspecified) was run?
The IC50 was 2.04 µM.

With Cc1ccc2c(c1)C1C=CCC1C(C(=O)O)N2 (stereo unspecified) as the molecule, how does the IC50 read?
The IC50 was 0.95 µM.

For CCc1ccc2nc(N3CCN(C)CC3)c(C#N)cc2c1, which IC50 is on record?
Its IC50 is 33.8 µM.

Which IC50 does the source give for Cc1cc(C(=O)CN2C(=O)c3ccccc3S2(=O)=O)c(C)n1CC1CCCO1 (stereo unspecified) here?
Its IC50 is 51.2 µM.

FC(F)(F)c1cc(-c2ccco2)nc(NCc2cccnc2)n1 was tested. Which IC50 did it give?
Its IC50 is 42.3 µM.

Cc1nc(C)c(C(=O)Nc2nc3c(C)cccc3s2)o1 was tested. Which IC50 did it give?
The IC50 was 32 µM.
